Measured values as given in US9468209B2, “Method for eradicating weeds with derivatives of 3-acetyl-5-sec-butyl-4-hydroxy-3-pyrrolin-2-one” (priority 2012, dated 2016).

How the values were obtained:
[1] = tested on: photosystem II; assay: PSII oxygen evolution / electron transfer activity of treated Crofton weed leaves; type: biochemical; settings: 50 μg/mL, strong light 12 hours
Description: (§1) Compounds 10-57 were dissolved in small amount of methanol. The solutions were then diluted with distilled water to a concentration of 50 μg/mL. A mixture of methanol and water in the same ratio as the sample solution was also prepared and used as control in the experiment. The healthy leaves of Crofton weed were washed in water for 30 minutes and then rinsed with distilled water. The clean and tissue dried leaves were placed in petri dish with the back-side of the leaves facing up. Wet filter paper was also placed in the in petri dish for moisture control. Water, methanol and chemical solutions of the analogues were applied to the back-side of each leaf. Test sample was then placed in vacuum chamber at 25° C. for 15 min followed by exposure to the strong light (400 μM m^−2 s^−1) for 12 hours. The leaf sample went through a series of test, and the Hill reaction rate, the electron transfer activity and fluorescence of chlorophyll were measured. Four leaves were used for each treatment and each test was repeated three times.

[2] = tested on: Hill reaction; assay: Hill reaction activity of treated Crofton weed leaves; type: biochemical; settings: 50 μg/mL, strong light 12 hours
Description: as §1

[3] = tested on: Crofton weed; assay: Needle puncture test on Crofton weed with washes recovered from compound-treated soil; type: in vivo; settings: after soil treatment (3 hours)
Description: Compounds 1, 2, 3, and 40 were dissolved in small amount of methanol and diluted with distilled water to concentration of 50 μg/mL. The solution was sprayed to the soil sample until the soil was wet but not overflows. After standing at room temperature for 3 hours, the soil sample was washed with water and methanol. The wash solution was collected and concentrated. Such process was repeated three times. The concentrated solutions were used for herbicidal activity test using the method of needle puncture on Crofton weed. Methanol water solution and pure water were used as control. The experiment for every sample was repeated six times. The spot diameters were measured with vernier caliper after the plant was kept under natural light at 25° C. for 24 hours (Table 11).

[4] = tested on: Crofton weed; assay: Spray on leaves and stems of three-leaf-stage Crofton weed seedlings grown in pots in a greenhouse; type: in vivo; set-up: key: 4: Plant completely dead; 3: Two thirds of the plant stems and leaves dried out; 2: Half of the plant stems and leaves dried out; 1: One third of the plant stems and leaves dried out; 0: No damage at all; settings: 50 μg/mL spray, assessed two days later
Description: Compounds 1, 2, 3, and 40 were separately dissolved in a small amount of methanol. The solutions were then diluted with distilled water to a concentration of 50 μg/mL. A mixture of methanol and water in the same ratio as the sample solution was also prepared and used as control in the experiment. The solutions were sprayed on leaves and stems of three-leaf-stage Crofton weed seedlings. All the plants were grown in pot in a greenhouse. The leaves were properly wet by the solutions for consistency and the treatment was repeated 3 times. The measurement of the plant damage was calculated by the formula: Damage Index=Σ(damage level×number of plants)×100/4/number of plants in each treatment.

| Structure (SMILES) | PSII Activity of oxygen evolution [1] [uMO2/mgChlh] | Activity of Hill Reaction [2] [uMO2/mgChlh] | Average diameter of the spot after 24 h, H2O wash ([3]; H2O wash) [mm] | Average diameter of the spot after 24 h, Methanol wash ([3]; Methanol wash) [mm] | Damage level [4] |
| --- | --- | --- | --- | --- | --- |
| CCCCC1NC(=O)C(C(C)=O)=C1O (stereo not drawn) [Compound 14] | 34.01 | 67.37 |  |  |  |
| CCC(C)C1NC(=O)C(C(=O)CCF)=C1O (stereo not drawn) [Compound 44] | 40.75 | 59.15 |  |  |  |
| CCCCCCC1NC(=O)C(C(C)=O)=C1O (stereo not drawn) [Compound 16] | 30.00 | 61.43 |  |  |  |
| CCCCCC1NC(=O)C(C(C)=O)=C1O (stereo not drawn) [Compound 15] | 31.26 | 62.77 |  |  |  |
| CCCC(Cl)C1NC(=O)C(C(C)=O)=C1O (stereo not drawn) [Compound 40] | 24.00 | 46.20 | 0.336 ± 0.050 | 0.416 ± 0.024 | 4 |
| CCCC(C#N)C1NC(=O)C(=C(C)O)C1=O (stereo not drawn) [Compound 53] | 32.12 | 42.72 |  |  |  |
